Test results: PMC9220351, “Evaluation of a Conformationally Constrained Indole Carboxamide as a Potential Efflux Pump Inhibitor in Pseudomonas aeruginosa” (Antibiotics, 2022)
Values after ≈ are worked out from the molar mass of the structure shown. Read-outs that look alike come from different tables or passages of the source.

What was measured:
[1] = system: P. aeruginosa ATCC 27853; assay: MIC / antibiotic potentiation assay, wild-type strain; conditions: for Antibiotic MIC in Presence of TXA09155 at a Concentration of 3.13: TXA09155 3.13 μg/mL; for Antibiotic MIC in Presence of TXA09155 at a Concentration of 25: TXA09155 25 μg/mL; for Emax: ratio between MIC without EPI and MIC in the presence of a maximal potentiating concentration of EPI (TXA09155)
[2] = system: P. aeruginosa mutants EPIR1S, EPIR9S, EPIR20L, EPIR43; assay: MIC of antimicrobials in TXA09155-resistant mutants; type: cell-based, Pseudomonas aeruginosa
Procedure: All resistant colonies were verified by determining the MIC to TXA09155. […] This two-component system regulates the expression of more than 100 genes in P. aeruginosa, including genes that code for efflux components (mexX), and plays a role in the resistance to cationic antimicrobial peptides and aminoglycoside antibiotics.
(§1) MIC assays were performed as described previously.

[3] = system: P. aeruginosa K2415 (mexXY-oprM overexpressed); assay: MIC / potentiation assay, strain K2415; type: cell-based, Pseudomonas aeruginosa; conditions: for MIC: Pseudomonas aeruginosa, read-out: MICs K2415 (↑mexXY-oprM)
From the text: (§2) P. aeruginosa ATCC 27853 was obtained from the American Type Culture Collection (ATCC; Manassas, VA, USA). P. aeruginosa multidrug-resistant isolates were obtained from the CDC and FDA Antibiotic Resistance Isolate Bank (Atlanta, GA, USA). P. aeruginosa DA7232 (gyrA-T83I, parC-S80L) was a kind gift from Prof. Dan I. Andersson, Uppsala University, Uppsala, Sweden, and has been characterized elsewhere. P. aeruginosa strains K767 (WT), K1455 (mexAB-oprM overexpressed), K2415 (mexXY-oprM overexpressed), and K3698 (oprM∆) were obtained from Prof. Keith Poole, Queen’s University, Kingston, Ontario, Canada and have been characterized elsewhere. Bacterial cells were grown in cation-adjusted Mueller Hinton (CAMH) media, brain heart infusion broth (BHI), or tryptic soy agar (TSA) plates were all obtained from Becton, Dickinson, and Company (BD; Franklin Lakes, NJ, USA). Aztreonam, ceftazidime, moxifloxacin, levofloxacin, minocycline, tigecycline, chloramphenicol, nitrocefin, and imipenem were purchased from TOKU-E (Bellingham, WA, USA). Azithromycin was purchased from Tokyo Chemical Industry (Portland, OR, USA). Cotrimoxazole was purchased from Toronto Research Chemicals (Toronto, ON, Canada). Doxycycline and polymyxin B were purchased from Sigma-Aldrich (St. Louis, MO, USA). Ethidium bromide (EtBr) and glucose were purchased from VWR (Radnor, PA, USA). MC-04,124 and TXA01182 were synthesized at TAXIS Pharmaceuticals. Carbonyl cyanide 3-chlorophenylhydrazone (CCCP) was purchased from Enzo Life Sciences (Farmingdale, NY, USA). DiOC2 (3) and propidium iodide were obtained from Thermo Fisher Scientific (Waltham, MA, USA).
as §1

[4] = system: P. aeruginosa K3698 (∆oprM); assay: MIC / potentiation assay, strain K3698; type: cell-based, Pseudomonas aeruginosa; conditions: for MIC: Pseudomonas aeruginosa, read-out: MICs K3698 (∆oprM)
From the text: as §2, with “Aztreonam, ceftazidime, moxifloxacin, levofloxacin, minocycline, tigecycline, chloramphenicol, nitrocefin, and imipenem were purchased from TOKU-E (Bellingham, WA, USA).” left out, “Cotrimoxazole was purchased from Toronto Research Chemicals (Toronto, ON, Canada). Doxycycline and polymyxin B were purchased from Sigma-Aldrich (St. Louis, MO, USA).” left out
as §1

[5] = system: P. aeruginosa K1455 (mexAB-oprM overexpressed); assay: microbe, parasite or virus in culture; type: cell-based, Pseudomonas aeruginosa; conditions: for MIC: Pseudomonas aeruginosa, read-out: MICs K1455 (↑mexAB-oprM)
From the text: as §2, §1

[6] = system: P. aeruginosa K767 (WT); assay: MIC assay, strain K767; type: cell-based, Pseudomonas aeruginosa; conditions: Pseudomonas aeruginosa; antibiotic alone; read-out: MICs K767 (WT)
From the text: as §2, §1

[7] = Pseudomonas aeruginosa, ATCC27853, read-out: Antibiotic MIC in Presence of TXA09155 at a Concentration of 0
[8] = Pseudomonas aeruginosa, ATCC27853, read-out: MICs, Lack of EPI
[9] = Pseudomonas aeruginosa, strain EPIR1S (phoQ-L175R)
[10] = Pseudomonas aeruginosa, strain EPIR20L (phoQ-H248D)

| Molecule | MIC ([1]; ATCC 27853, parent strain) [µg/mL] | MIC [3] [µg/mL] | MIC [1, 7] [µg/mL] | MIC [1, 8] [µg/mL] | Antibiotic MIC in Presence of TXA09155 at a Concentration of 3.13 [1] [µg/mL] | Antibiotic MIC in Presence of TXA09155 at a Concentration of 25 [1] [µg/mL] | Antibiotic MIC in Presence of TXA09155 at a Concentration of 12.5 [1] [µg/mL] | Emax [1] | MIC [4] [µg/mL] | MIC [5] [µg/mL] | MIC [6] [µg/mL] | MIC [2, 9] [µg/mL] | MIC [2, 10] [µg/mL] | further results |
| --- | --- | --- | --- | --- | --- | --- | --- | --- | --- | --- | --- | --- | --- | --- |
| polymyxin B [PMB] | 2 |  |  |  |  |  |  |  |  |  |  |  |  | MIC ([2]; strain EPIR1S (phoQ-L175R)): 4 µg/mL; MIC ([2]; strain EPIR9S (phoQ-L175R)): 2 µg/mL; MIC ([2]; strain EPIR20L (phoQ-H248D)): 4 µg/mL; MIC ([2]; strain EPIR43 (ompH-Q127X)): 4 µg/mL |
| CN(C)c1ccc(O)c2c1C[C@H]1C[C@H]3[C@H](N(C)C)C(O)=C(C(N)=O)C(=O)[C@@]3(O)C(O)=C1C2=O [Minocycline] |  | 32 | 32 | 32 | 16 | 0.125 | 0.25 | 256 | 1 | > 256 | 64 (≈ 140 µM) |  |  |  |
| CC[C@H]1OC(=O)[C@H](C)[C@@H](O[C@H]2C[C@@](C)(OC)[C@@H](O)[C@H](C)O2)[C@H](C)[C@@H](O[C@@H]2O[C@H](C)C[C@H](N(C)C)[C@H]2O)[C@](C)(O)C[C@@H](C)CN(C)[C@H](C)[C@@H](O)[C@]1(C)O [AZM, azithromycin] | 64 |  |  |  |  |  |  |  |  |  |  | 64 | 64 |  |
| CO/N=C(\C(=O)N[C@@H]1C(=O)N2C(C(=O)[O-])=C(C[n+]3cccc4c3CCC4)CS[C@H]12)c1csc(N)n1 [Cefpirome] |  | 8 | 8 |  | 4 | 0.5 | 0.5 | 16 | 0.5 | 8 (≈ 15.5 µM) | 2 (≈ 3.89 µM) |  |  | MIC Ratios K2415 (↑mexXY-oprM) ± TXA09155 ([3]; TXA09155 […]): 8; antibiotic potentiated by TXA09155 up to x-fold ([1]; TXA09155 25 to 3.13 µg/mL): up to 16 fold; FICindex ([1]; sum of the FICindex of antibiotic and TXA09155, <0.5 synergistic): 0.25; MIC Ratios K3698 (∆oprM) ± TXA09155 ([4]; TXA09155 […]): 2; MIC Ratios K1455 (↑mexAB-oprM) ± TXA09155 ([5]; TXA09155 […]): 8; MIC Ratios K1455 (↑mexAB-oprM)/K3698 (∆oprM) ([5]; antibiotic alone, effect of pump deletion): 4 |
| O=C(N[C@H](CO)[C@H](O)c1ccc([N+](=O)[O-])cc1)C(Cl)Cl [Chloramphenicol] |  | 128 | > 256 | > 256 | >256 | 2 | 4 | >128 | 8 | > 256 | 128 (≈ 396 µM) |  |  |  |
| CC(C)(O/N=C(\C(=O)N[C@@H]1C(=O)N2C(C(=O)[O-])=C(C[n+]3ccccc3)CS[C@H]12)c1csc(N)n1)C(=O)O [CAZ, ceftazidime] | 2 |  |  |  |  |  |  |  |  |  |  | 2 | 2 |  |
| C[C@H]1c2cccc(O)c2C(=O)C2=C(O)[C@]3(O)C(=O)C(C(N)=O)=C(O)[C@@H](N(C)C)[C@@H]3[C@@H](O)[C@@H]21 [Doxycycline] |  | 32 | 32 | 32 | 16 |  |  |  |  | ≥ 256 | 32 (≈ 72 µM) | 16 | 16 | MIC ([2]; Pseudomonas aeruginosa, strain EPIR9S (phoQ-L175R)): 16 µg/mL |
